Measured values reported in patent US5478928A, “2',3'-dideoxy-4'-thioribonucleosides and synthetic precursors thereof” (priority 1993, dated 1995).
≈ marks a conversion by molar mass, not a printed value. Where two headings read alike, the source gives them in different places.

Columns and labels:
[1] = system: CEM cells infected with HIV virus (HIV-1 isolates IIIB and/or RF); assay: Inhibition of HIV cytopathogenic effects (CPE) in CEM cells (MTT); assay type: cell-based; settings: for SI (selectivity index): TC25 divided by the ID50; for TAI (total antiviral index): area between the cytotoxicity and the antiviral curves; for IC50: Human immunodeficiency virus 1, IIIB, CCRF-CEM, read-out: IC50 (minimum drug concentration that inhibited CPE by 50%)
Procedure: (§1) Compounds of the present invention are readily screened for anti-HIV activity by the following standard screening assay in CEM and MT2 cells.
(§2) 1. Compound dilution and delivery to the plates. Test compounds are solubilized in the appropriate vehicle such as distilled water, DMSO, methyl alcohol, or other vehicle. The maximum solubility is determined as appropriate. Latex gloves, lab coats, and masks are used during all phases of the handling process to prevent exposure to potentially harmful agents. At highest solubility, the test compound is prepared and stored at -20° C. until used by the screening laboratory. The first dilution of each compound is made tube with medium to yield a concentration two-fold that of the highest test concentration. Sterile titer tubes are then used to make serial one half log dilutions of each compound. Following dilution, the diluted compound is added to the appropriate well of a 96-well microtiter plate. Up to 12 dilutions can be conveniently assayed in triplicate on a single plate with all appropriate controls, including cell control, virus control, toxicity control, drug color control, medium control and plastic control. When testing includes only six dilutions, two drugs can be assayed on a single microtiter plate. The test compounds are added to the plate in a final volume of 100 microliters.
(§3) 2. Cells and virus. During the time that the test compound dilutions are prepared, cells are washed and counted. Viability is monitored by trypan blue dye exclusion and assays are not performed if the viability falls below 90%. Cells are maintained in an exponential growth phase and are split 1:2 on the day prior to assay to assure adequate growth rate. For the primary screen, the cell line utilized is CEM cells. […] However, both cell lines are available and being used at all times and can be substituted or used in addition to CEM cells as requested. Unless otherwise indicated, the medium is phenol red-free RPMI 1640 with 10% heat-inactivated fetal calf serum (FBS), glutamine and antibiotics. Cells are propagated at 37° C. in an atmosphere of 5% CO2 in air. The virus employed for this work is HIV-1 isolates IIIB and/or RF prepared by the acute infection process as follows: Briefly, virus infected cells are pelleted on a daily basis beginning at three days postinfection until the virus has killed all of the cells in the culture. Reverse transcriptase activity and p24 ELISA are used to identify pools with the greatest amount of virus. These 24-hour harvests are pooled, filtered and frozen at -90° C. Prior to use in the assay the virus is titered on all available cell lines in order to determine the amount of virus required in the assay. In general, pools produced by the acute virus method require the addition of one microliter of infectious virus per well resulting in the screening of drugs on a multiplicity of infection of 0.01. In this manner enough virus is prepared and frozen to complete over one thousand microtiter plates, allowing the testing of up to two thousand compounds from a single stock. […] Virus infection of the CEM cells is carried in a bulk infection process. The appropriate number of cells required to complete the assay are mixed with infectious virus in a conical centrifuge tube in a small total volume of 1-2 milliliters. Following a one hour incubation the infected cells are brought to the appropriate final concentration of 5×10^4 cells per milliliter with fresh tissue culture medium and 100 microliters are added to the appropriate experimental and virus control wells. Uninfected cells at the same concentration are plated for the toxicity controls and for the cell controls.
(§4) 3. Evaluation of CPE-inhibition. Following the addition of cells and test compounds to the microtiter plate, the plate is incubated for 6 days at 37° C.

[2] = system: CEM cells; assay: Cytotoxicity (cell viability) in CEM cells
Procedure: as §1, §2, §3, §4

[3] = system: MT-2 cells infected with HIV virus (HIV-1 isolates IIIB and/or RF); assay: Inhibition of HIV cytopathogenic effects (CPE) in MT-2 cells (MTT); assay type: cell-based; settings: for IC50: Human immunodeficiency virus 1, IIIB; for SI (selectivity index): TC25 divided by the ID50; for TAI (total antiviral index): area between the cytotoxicity and the antiviral curves
Procedure: as §1, §2, §3, §4

[4] = system: MT-2 cells; assay: Cytotoxicity (cell viability) in MT-2 cells
Procedure: as §1, §2, §3, §4

[5] = system: AIDS; settings: cited from earlier work
[6] = CEM cells, means of several experiments
[7] = MT2, MT-2 cells, means of several experiments, read-out: IC50 (minimum drug concentration that inhibited CPE by 50%)
[8] = MT-2 cells, means of several experiments

SMILES | SI (selectivity index) ([1]; CEM cells) | TAI (total antiviral index) ([1]; CEM cells) | IC50 [1, 6] [µg/mL] | TC25 (minimum drug concentration that reduced cell viability by 25%) [2, 6] [µg/mL] | TAI (total antiviral index) ([3]; MT-2 cells) | TC25 (minimum drug concentration that reduced cell viability by 25%) [4, 8] [µg/mL] | other results
Cc1cn([C@H]2C[C@H](N=[N+]=[N-])[C@@H](CO)S2)c(=O)[nH]c1=O | > 222.02 | > 60.15 | 0.45 (≈ 1.59 µM) | > 100 |  |  | 
Nc1nc2c(ncn2[C@H]2CC[C@@H](CO)S2)c(=O)[nH]1 [4'-thio-2',3'-dideoxy-guanosine, 4'-Thio-2',3'-dideoxy-guanosine] |  | 0.0 |  | > 100 | 11.0 | > 200 | IC50 [3, 7]: 98 µg/mL (≈ 367 µM); SI (selectivity index) ([3]; MT-2 cells): 1.6
Nc1ccn([C@H]2CC[C@@H](CO)S2)c(=O)n1 [4'-thio-2',3'-dideoxycytidine, 4'-Thio-2',3'-dideoxycytidine] | > 100 | > 65 | 1 (≈ 4.4 µM) | > 100 |  |  | 
OC[C@@H]1CC[C@H](n2cnc3c(O)ncnc32)S1 [4'-thio-2',3'-dideoxyinosine, 4'-Thio-2',3'-dideoxyinosine] |  |  |  |  | > 4.0 | > 100 | 
Cc1cn([C@H]2CC[C@@H](CO)S2)c(=O)[nH]c1=O [4'-thio-3'-deoxythymidine, 4'-Thio-3'-deoxythymidine] |  | 4.0 |  | > 150 | > 4.0 | > 100 | 
Nc1ncnc2c1ncn2[C@H]1CC[C@@H](CO)S1 [4-'-thio-2'3'-dideoxyadenosine, 4'-Thio-2',3'-dideoxyadenosine] |  |  |  |  | > 17 | > 100 | IC50 [3, 7]: 80 µg/mL (≈ 318 µM); SI (selectivity index) ([3]; MT-2 cells): 1.3
Nc1nc(N)c2ncn([C@H]3CC[C@@H](CO)S3)c2n1 [9-(4-Thio-2,3-dideoxy-D-ribofuranosyl)-2,6-diaminopurine] | 2.6 | 21.0 | 37 (≈ 139 µM) | 97.0 (≈ 364 µM) |  |  | 
Nc1nc(Cl)nc2c1ncn2[C@H]1CC[C@@H](CO)S1 [9-(4-Thio-2,3-dideoxy-D-ribofuranosyl)-2-chloro-6-aminopurine] |  |  |  | 5.74 (≈ 20.1 µM) |  |  | 
OC[C@@H]1CC[C@H](n2cnc3c(Cl)ncnc32)S1 [9-(4-Thio-2,3-dideoxy-D-ribofuranosyl)-6-chloropurine] |  |  |  |  | 0.0 | 21 (≈ 77.6 µM) | 
Cc1cn([C@H]2C[C@H](N=[N+]=[N-])[C@@H](CO)O2)c(=O)[nH]c1=O [AZT, 3'-azido-3'-deoxythymidine, reference compound] | > 313 | > 93 |  | > 10 | > 82 | 9.3 (≈ 34.8 µM) | IC50 ([3]; MT2, read-out: IC50 (minimum drug concentration that inhibited CPE by 50%)): 0.14 µg/mL (≈ 0.524 µM); SI (selectivity index) ([3]; MT-2 cells): > 160; IC50 [1]: < 0.03 µg/mL; potency for the treatment of AIDS ([5]; background): particularly potent; side effects ([5]; background): undesirable side effects
Nc1ccn([C@H]2CC[C@@H](CO)O2)c(=O)n1 [DDC, dideoxycytidine, reference compound] | 120 | > 63 | 0.05 (≈ 0.237 µM) |  | > 52 |  | IC50 [3, 7]: 0.44 µg/mL (≈ 2.08 µM); TC25 (minimum drug concentration that reduced cell viability by 25%) ([4]; human): > 9.8 µg/mL; TC25 (minimum drug concentration that reduced cell viability by 25%) ([2]; human): 5.3 µg/mL (≈ 25.1 µM); side effects [5]: undesirable side effects
CNc1ncnc2c1ncn2[C@H]1CC[C@@H](CO)S1 [N^6 -Methyl-4'-thio-2',3'-dideoxyadenosine] |  |  |  |  | 1.0 | > 100 | 
O=c1[nH]cnc2c1ncn2[C@H]1CC[C@@H](CO)O1 [dideoxyinosine] |  |  |  |  |  |  | side effects [5]: undesirable side effects
